Assay results published in US11053253B2, “Macrocyclic compounds for treatment of medical disorders” (Achillion Pharmaceuticals, Inc., priority 2017, dated 2021).
Where two headings read alike, the source gives them in different places.

Assays:
[1] = rcm bond, toluene, 80.0 °C
[2] = target: Human Factor D (Homo sapiens (Human), UniProt P00746); assay: Human Factor D Assay; type: biochemical; settings: Human Factor D 80 nM, substrate Z-L-Lys-SBzl, DTNB, A405; read-out: IC50 (Stars)
Outline: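 Serum-purified enzyme (80 nM final) was preincubated with compound 5 min at room temperature in 50 mM Tris, 1M NaCl, pH 7.5. Z-L-Lys-SBzl and DTNB ([…] each, final) were added and A405 followed every 30 s for 30 min; IC50 from nonlinear regression of reaction rates.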

[3] = rcm bond; 20-membered ring; Grubbs II; toluene; 1.6 mM; 80.0 °C

Human Factor D, sequence (P00746 26-253): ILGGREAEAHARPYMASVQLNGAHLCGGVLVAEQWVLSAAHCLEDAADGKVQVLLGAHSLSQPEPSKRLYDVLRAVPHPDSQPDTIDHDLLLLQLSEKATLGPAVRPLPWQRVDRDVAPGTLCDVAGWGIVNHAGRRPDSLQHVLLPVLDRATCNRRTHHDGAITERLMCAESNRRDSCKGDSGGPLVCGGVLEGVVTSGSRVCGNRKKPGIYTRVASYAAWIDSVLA

Question: For `CC(=O)c1nn2c3cc(ccc13)OC(=O)NCCCC=CCOC[C@@]13C[C@@H](C(=O)Nc4nc(Br)ccc4C)N(C(=O)C2)[C@@H]1C3`, which ring closure, isolated yield ([1]; from C=CCCCNC(=O)Oc1ccc2c(C(C)=O)nn(CC(=O)N3[C@H](C(=O)Nc4nc(Br)ccc4C)C[C@@]4(COCC=C)C[C@@H]34)c2c1, 20-membered ring, Grubbs II, 1.48 mM, 16.0 h) is on record?
Answer: 4.1%

Question: With `CN1CC=CCOCc2ccc(Br)nc2NC(=O)[C@@H]2C[C@]3(C[C@H]3N2C(=O)OC(C)(C)C)C1` as the molecule, how does the ring closure, isolated yield ([1]; from C=CCOCc1ccc(Br)nc1NC(=O)[C@@H]1C[C@@]2(CN(C)CC=C)C[C@H]2N1C(=O)OC(C)(C)C, 15-membered ring, Hoveyda-Grubbs II (extra 5 mg portions), 10.0 mM, 2.0 h) read?
Answer: 68%

Question: Which ring closure, isolated yield ([1]; from C=CCCCC(=O)NC[C@]12C[C@@H](C(=O)Nc3nc(Br)ccc3C)N[C@]1(C(=O)Cn1nc(C#N)c3cc(-c4cnc(C)nc4)nc(CC=C)c31)C2, 17-membered ring, Grubbs II, 1.27 mM, 16.0 h) does the source give for `Cc1ncc(-c2cc3c(C#N)nn4c3c(n2)CC=CCCCC(=O)NC[C@]23C[C@@H](C(=O)Nc5nc(Br)ccc5C)N[C@@]2(C3)C(=O)C4)cn1` here?
Answer: 44.8%

Question: Which IC50 [2] does the source give for `CC(=O)c1nn2c3c(cc(-c4cnc5cc(C6CC6)nn5c4)cc13)CCCCCCC(=O)NC[C@@]13C[C@@H](C(=O)Nc4nc(C(F)(F)F)ccc4C)N(C(=O)C2)[C@@H]1C3` [Compound T-258] here?
Answer: < 1000 nM

Question: With “(4^1R,4^3S,4^5S,Z)-1^3-acetyl-N-(6-bromo-3-methylpyridin-2-yl)-3,14-dioxo-1^1H-6-oxa-4^2,13,15-triaza-1(1,6)-indazola-4(2,5)-bicyclo[3.1.0]hexanacyclopentadecaphan-8-ene-43-carboxamide” as the molecule, how does the ring closure, yield after HPLC [3] read?
Answer: 2.1%

Question: Which IC50 [2] does the source give for “(41R,43S,45R)-42-(2-(3-acetyl-5-(2- methylpyrimidin-5-yl)-1H-indazol-1- yl)acetyl)-16-bromo-6-methyl-7-thia-42,6- diaza-1(2,3)-pyridina-4(3,5)- bicyclo[3.1.0]hexanacycloundecaphan-10- en-3-one 7,7-dioxide [Compound T-17]” here?
Answer: < 1000 nM
